Earlier results in patent US10100341B2, “Tailored oils produced from recombinant oleaginous microorganisms” (Corbion Biotech, Inc., priority 2011, dated 2018).

Columns and labels:
[1] = tested on: Chlorella ellipsoidea; conditions: 30 ug/mL G418; cited from earlier work
[2] = tested on: Amphidinium sp.; conditions: 3 mg/ml G418; cited from earlier work
[3] = tested on: Symbiodinium microadriacticum; conditions: 3 mg/ml G418; cited from earlier work
[4] = tested on: Cyclotella cryptica; conditions: 50% artificial seawater medium, 100 ug/ml G418; cited from earlier work
[5] = tested on: Navicula saprophila; conditions: artificial seawater medium, 100 ug/ml G418; cited from earlier work
[6] = tested on: Chlamydomonas reinhardtii; conditions: 90 ug/ml spectinomycin; cited from earlier work
[7] = tested on: Rhodococcus opacus; conditions: 1 mg/ml thiostrepton; cited from earlier work
[8] = tested on: Volvox carteri; conditions: 1.5 ug/ml zeocin; cited from earlier work
[9] = tested on: Phaeodactylum tricornutum; conditions: 50 ug/ml zeocin; cited from earlier work
[10] = tested on: Cylindrotheca fusiformis; conditions: 1 mg/ml zeocin; cited from earlier work
[11] = tested on: Nannochloropsis sp. W2J3B; conditions: 2 ug/ml zeocin; cited from earlier work
[12] = tested on: Chaetoceros sp.; conditions: 500 ug/ml nourseothricin; cited from earlier work
[13] = tested on: Thalassiosira pseudonana; conditions: 10 ug/ml nourseothricin; cited from earlier work

Molecule: CN[C@@H]1[C@@H](O)[C@@H](O[C@@H]2[C@@H](O)[C@H](O[C@H]3O[C@H]([C@@H](C)O)[C@@H](O)[C@H](O)[C@H]3N)[C@@H](N)C[C@H]2N)OC[C@]1(C)O [G418]
- propagation of untransformed cells in medium comprising the agent [1]: unable to be propagated
- propagation of untransformed cells in medium comprising the agent [2]: unable to be propagated
- propagation of untransformed cells in medium comprising the agent [3]: unable to be propagated
- propagation of untransformed cells in medium comprising the agent [4]: unable to propagate
- propagation of untransformed cells in medium comprising the agent [5]: unable to propagate

Molecule: CN[C@@H]1[C@H](O)[C@H](NC)[C@H]2O[C@@]3(O)C(=O)C[C@@H](C)O[C@H]3O[C@@H]2[C@H]1O [spectinomycin]
- propagation of untransformed cells in medium comprising the agent [6]: unable to propagate

Molecule: C=C(NC(=O)C(=C)NC(=O)c1csc(C2=N[C@@H]3c4csc(n4)[C@H]4NC(=O)c5csc(n5)[C@H]([C@](C)(O)[C@@H](C)O)NC(=O)[C@H]5CSC(=N5)/C(=C/C)NC(=O)[C@H]([C@@H](C)O)NC(=O)c5csc(n5)[C@]3(CC2)NC(=O)[C@H](C)NC(=O)C(=C)NC(=O)[C@H](C)NC(=O)[C@H]([C@@H](C)CC)N[C@@H]2C=Cc3c([C@H](C)O)cc(nc3[C@H]2O)C(=O)O[C@@H]4C)n1)C(N)=O [thiostrepton]
- propagation of untransformed cells in medium comprising the agent [7]: unable to propagate

Molecule: Cc1c(N)nc([C@H](CC(N)=O)NC[C@H](N)C(N)=O)nc1C(=O)N[C@H](C(=O)N[C@H](C)[C@@H](O)[C@H](C)C(=O)N[C@H](C(=O)NCCC1=N[C@@H](c2nc(C(=O)NCCCCN=C(N)N)cs2)CS1)[C@@H](C)O)[C@@H](O[C@@H]1O[C@@H](CO)[C@@H](O)[C@H](O)[C@@H]1O[C@H]1O[C@H](CO)[C@@H](O)[C@H](OC(N)=O)[C@@H]1O)c1cnc[nH]1 [zeocin]
- propagation of untransformed cells in medium comprising the agent [8]: unable to be propagated
- propagation of untransformed cells in medium comprising the agent [9]: unable to propagate
- propagation of untransformed cells in medium comprising the agent [10]: unable to propagate
- propagation of untransformed cells in medium comprising the agent [11]: unable to propagate

Molecule: nourseothricin
- propagation of untransformed cells in medium comprising the agent [12]: unable to propagate
- propagation of untransformed cells in medium comprising the agent [13]: unable to propagate
